Reference: patent US11878975B2, “Substituted indole compounds useful as TLR inhibitors” (BRISTOL-MYERS SQUIBB COMPANY, priority 2017, dated 2024)

Tests used:
Format in all cases: cell-based
human TLR7 = target: T1, human TLR7 (Homo sapiens, UniProt Q9NYK1); assay: TLR7 inhibition reporter assay (HEK-Blue cells, SEAP reporter, gardiquimod stimulation); conditions: HEK-Blue cells overexpressing human TLR7, SEAP reporter, gardiquimod 7.5 μM
T1 construct: host or cells: HEK-Blue cells
T1 sequence (Q9NYK1 27-1049): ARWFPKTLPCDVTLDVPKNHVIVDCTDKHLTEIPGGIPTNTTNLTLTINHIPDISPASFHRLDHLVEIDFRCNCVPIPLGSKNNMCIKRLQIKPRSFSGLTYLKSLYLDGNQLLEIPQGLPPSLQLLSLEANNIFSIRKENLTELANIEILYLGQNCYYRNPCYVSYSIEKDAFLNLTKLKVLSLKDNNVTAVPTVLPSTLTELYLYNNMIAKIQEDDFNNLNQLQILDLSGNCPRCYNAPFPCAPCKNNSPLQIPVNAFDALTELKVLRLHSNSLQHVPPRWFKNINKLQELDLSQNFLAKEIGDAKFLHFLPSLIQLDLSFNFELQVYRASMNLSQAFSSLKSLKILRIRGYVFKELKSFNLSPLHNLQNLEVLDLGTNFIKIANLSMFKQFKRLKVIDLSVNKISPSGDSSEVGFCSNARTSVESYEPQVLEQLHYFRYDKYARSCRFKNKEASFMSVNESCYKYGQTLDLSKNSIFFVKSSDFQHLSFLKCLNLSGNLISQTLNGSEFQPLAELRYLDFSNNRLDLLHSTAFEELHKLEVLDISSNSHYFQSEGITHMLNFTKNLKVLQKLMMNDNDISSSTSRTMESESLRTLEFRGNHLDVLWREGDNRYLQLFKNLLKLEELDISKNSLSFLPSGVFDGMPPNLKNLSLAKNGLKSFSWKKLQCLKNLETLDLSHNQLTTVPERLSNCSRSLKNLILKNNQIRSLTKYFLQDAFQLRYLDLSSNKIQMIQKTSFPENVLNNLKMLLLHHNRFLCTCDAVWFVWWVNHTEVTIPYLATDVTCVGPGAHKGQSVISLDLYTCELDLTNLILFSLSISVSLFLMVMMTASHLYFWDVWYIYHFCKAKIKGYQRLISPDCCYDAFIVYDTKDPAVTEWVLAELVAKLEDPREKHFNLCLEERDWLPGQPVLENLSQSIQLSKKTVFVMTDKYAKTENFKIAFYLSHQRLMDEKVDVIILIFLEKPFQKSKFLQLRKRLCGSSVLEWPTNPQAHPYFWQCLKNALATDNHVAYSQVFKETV
Procedure, shortened: (§1)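 Dose range 0.05 nM–50 μM; 30 min preincubation, RT. Agonists: TLR7 gardiquimod 7.5 μM, TLR8 R848 15.9 μM, TLR9 ODN2006 5 nM. 22 h, 37 °C, 5% CO2. SEAP (IFN-β minimal promoter with NF-κB/AP-1 sites) via colorimetric detection medium; % inhibition vs agonist+DMSO and reference-inhibitor wells.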

human TLR8 = target: T2, human TLR8 (Homo sapiens, UniProt Q9NR97); assay: TLR8 inhibition reporter assay (HEK-Blue cells, SEAP reporter, R848 stimulation); conditions: HEK-Blue cells overexpressing human TLR8, SEAP reporter, R848 15.9 μM
T2 construct: host or cells: HEK-Blue cells
T2 sequence (Q9NR97 27-1041): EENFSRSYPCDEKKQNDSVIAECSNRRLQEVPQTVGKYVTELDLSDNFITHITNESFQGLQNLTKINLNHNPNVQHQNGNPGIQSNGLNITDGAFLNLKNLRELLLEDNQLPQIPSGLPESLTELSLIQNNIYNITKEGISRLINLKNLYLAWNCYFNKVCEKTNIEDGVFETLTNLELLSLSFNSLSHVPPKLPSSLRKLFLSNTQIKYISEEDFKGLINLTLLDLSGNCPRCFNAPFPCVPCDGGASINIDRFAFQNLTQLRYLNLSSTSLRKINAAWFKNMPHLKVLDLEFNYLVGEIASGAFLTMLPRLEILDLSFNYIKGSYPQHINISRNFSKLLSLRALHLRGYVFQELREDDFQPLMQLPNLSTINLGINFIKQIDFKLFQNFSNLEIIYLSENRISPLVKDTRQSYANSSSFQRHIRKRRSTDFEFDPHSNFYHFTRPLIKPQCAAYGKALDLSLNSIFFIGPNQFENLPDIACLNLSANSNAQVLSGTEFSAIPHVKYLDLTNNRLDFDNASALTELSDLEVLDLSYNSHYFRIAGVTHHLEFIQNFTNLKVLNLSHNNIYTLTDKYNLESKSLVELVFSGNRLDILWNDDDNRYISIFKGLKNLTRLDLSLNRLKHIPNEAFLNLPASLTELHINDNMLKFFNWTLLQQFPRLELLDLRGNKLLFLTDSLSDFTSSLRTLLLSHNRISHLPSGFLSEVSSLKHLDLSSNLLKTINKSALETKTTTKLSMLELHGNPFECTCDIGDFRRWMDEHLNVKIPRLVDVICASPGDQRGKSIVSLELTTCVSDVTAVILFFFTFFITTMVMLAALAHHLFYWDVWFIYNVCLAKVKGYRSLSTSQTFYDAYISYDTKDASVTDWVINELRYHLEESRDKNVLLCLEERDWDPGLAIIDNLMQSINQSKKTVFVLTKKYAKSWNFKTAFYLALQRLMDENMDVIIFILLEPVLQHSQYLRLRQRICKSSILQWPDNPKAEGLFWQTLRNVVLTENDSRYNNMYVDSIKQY
Procedure, shortened: as §1

human TLR9 = target: T3, human TLR9 (Homo sapiens, UniProt Q9NR96); assay: TLR9 inhibition reporter assay (HEK-Blue cells, SEAP reporter, ODN2006 stimulation); conditions: HEK-Blue cells overexpressing human TLR9, SEAP reporter, ODN2006 5 nM
T3 construct: host or cells: HEK-Blue cells
T3 sequence (Q9NR96 26-1032): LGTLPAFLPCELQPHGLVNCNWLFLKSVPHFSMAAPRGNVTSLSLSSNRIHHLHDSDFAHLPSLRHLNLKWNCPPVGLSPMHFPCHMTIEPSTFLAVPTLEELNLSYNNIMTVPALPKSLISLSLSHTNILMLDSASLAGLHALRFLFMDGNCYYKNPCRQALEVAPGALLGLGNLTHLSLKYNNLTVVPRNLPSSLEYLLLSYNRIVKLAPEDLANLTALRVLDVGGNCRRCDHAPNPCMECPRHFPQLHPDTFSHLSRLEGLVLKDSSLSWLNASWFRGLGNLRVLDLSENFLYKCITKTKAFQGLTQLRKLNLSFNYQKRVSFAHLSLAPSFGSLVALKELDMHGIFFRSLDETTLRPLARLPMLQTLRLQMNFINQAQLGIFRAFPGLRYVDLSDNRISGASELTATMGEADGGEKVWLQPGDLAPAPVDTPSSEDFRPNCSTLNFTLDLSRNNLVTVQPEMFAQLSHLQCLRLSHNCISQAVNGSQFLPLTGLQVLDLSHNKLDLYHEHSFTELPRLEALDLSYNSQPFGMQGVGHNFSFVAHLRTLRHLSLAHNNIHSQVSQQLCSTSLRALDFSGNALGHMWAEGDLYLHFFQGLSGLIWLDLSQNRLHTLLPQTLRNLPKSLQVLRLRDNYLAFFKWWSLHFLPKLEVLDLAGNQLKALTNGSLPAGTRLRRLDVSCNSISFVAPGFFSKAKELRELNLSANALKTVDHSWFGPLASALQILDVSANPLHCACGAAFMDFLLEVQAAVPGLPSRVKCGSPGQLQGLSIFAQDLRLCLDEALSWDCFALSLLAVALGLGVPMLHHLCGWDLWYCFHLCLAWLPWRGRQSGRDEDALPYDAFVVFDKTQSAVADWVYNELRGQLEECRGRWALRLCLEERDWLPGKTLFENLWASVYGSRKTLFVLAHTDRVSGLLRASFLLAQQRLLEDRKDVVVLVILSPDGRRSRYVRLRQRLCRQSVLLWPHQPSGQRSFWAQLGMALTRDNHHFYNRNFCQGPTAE
Procedure, shortened: as §1

SMILES	IC50 (human TLR7) [nM]	IC50 (human TLR8) [nM]	IC50 (human TLR9) [nM]
Cc1cc(-c2[nH]c3ccc(C4CCC(N5CCOCC5)CC4)cc3c2C(C)C)cc(C)n1 (stereo not drawn) [Example 54]	2	3.3	618
Cc1c(-c2[nH]c3ccc(C4CN(CC(=O)N(C)C)C4)cc3c2C(C)C)cn2cnnc2c1C [Example 539]	64	132	1890
Cc1c(-c2[nH]c3ccc(C4CN(CCS(C)(=O)=O)C4)cc3c2C(C)C)cn2ncnc2c1C [Example 543]	4	5.1	9490
CCCN1CC(c2ccc3[nH]c(-c4cn(C)c(=O)c(Cl)c4C)c(C(C)C)c3c2)C1 [Example 500]	16	13	5370
Cc1c(-c2[nH]c3ccc(C4CN(C5CCOCC5)C4)cc3c2C(C)C)cn(C)c(=O)c1C [Example 481]	109	27	32800
Cc1cc(-c2[nH]c3ccc(C4CN(C(C)C)CCO4)cc3c2C(C)C)cc(C)n1 (stereo not drawn) [Example 303]	15	12	699
Cc1c(-c2[nH]c3ccc(C4CC(N(C)CCS(C)(=O)=O)C4)cc3c2C(C)C)cn2ncnc2c1C (stereo not drawn) [Example 586]	13	3.8	44000
Cc1c(-c2[nH]c3ccc(C4CN(CCS(C)(=O)=O)C4)cc3c2C(C)C)cn(C)c(=O)c1C [Example 483]	61	8.8	22700
CCN(C)C1CCC(c2ccc3[nH]c(-c4cn5ncnc5c(C)c4C)c(C(C)C)c3c2)CC1 (stereo not drawn) [Example 88]	2	4.7	1980
Cc1cc(-c2[nH]c3ccc(C4CN(C5CCS(=O)(=O)CC5)C4)cc3c2C(C)C)cc(C)n1 [Example 270]	14	20	888
Cc1c(-c2[nH]c3ccc(C4CN(CC(N)=O)CCO4)cc3c2C(C)C)cn2ncnc2c1C (stereo not drawn) [Example 320]	16	54	> 50000
Cc1cc(-c2[nH]c3ccc(CC4CCCN4Cc4ccccc4)cc3c2C(C)C)cn2ncnc12 (single isomer, unassigned) [Example 396, 5-[(1-benzylpyrrolidin-2-yl)methyl]-2-{8-methyl-[1,2,4]triazolo[1,5-a]pyridin-6-yl}-3-(propan-2-yl)-1H-indole]	2	2.8	2380
Cc1c(-c2[nH]c3ccc(C4CCC(NC5CC5)CC4)cc3c2C(C)C)cn2ncnc2c1C (stereo not drawn) [Example 14]	5	3.5	4080
Cc1cc(-c2[nH]c3ccc(C4CN(CCS(C)(=O)=O)CCO4)cc3c2C(C)C)cc(C)n1 (stereo not drawn) [Example 351]	28	31	48300
Cc1cc(-c2[nH]c3ccc(C4CN(C5CCOC(C)(C)C5)C4)cc3c2C(C)C)cn2ncnc12 (stereo not drawn) [Example 269, 6-(5-(1-(2,2-dimethyltetrahydro-2H-pyran-4-yl)azetidin-3-yl)-3-isopropyl-1H-indol-2-yl)-8-methyl-[1,2,4]triazolo[1,5-a]pyridine]	5	8.3	3670
CCc1c(-c2ccc(OC)c(OC)c2)[nH]c2ccc(CN3CC4CN(C(C)C)CC4C3)cc12 (stereo not drawn) [Example 392, 2-(3,4-dimethoxyphenyl)-3-ethyl-5-{[5-(propan-2-yl)-octahydropyrrolo[3,4-c]pyrrol-2-yl]methyl}-1H-indole]	2390	553	1180
COCCC(=O)N1CCCC(c2ccc3[nH]c(-c4cc(C)nc(C)c4)c(C(C)C)c3c2)C1 (stereo not drawn) [Example 208]	6	43	> 50000
Cc1cc(-c2[nH]c3ccc(C4CCC(C(=O)NC5CCN(C(C)C)CC5)CC4)cc3c2C(C)C)cn2ncnc12 (stereo not drawn) [Example 158]	0.47	3.2	2290
Cc1cc(-c2[nH]c3ccc(C4CN(C5COC5)CCO4)cc3c2C(C)C)cn2ncnc12 (stereo not drawn) [Example 290]	36	177	> 50000
Cc1c(-c2[nH]c3ccc(C4CCCN(CC(=O)N(C)C)C4)cc3c2C(C)C)cn2ncnc2c1C (stereo not drawn) [Example 230]	13	13	5790
Cc1c(-c2[nH]c3ccc(C4CC(NCC(=O)N(C)C)C4)cc3c2C(C)C)cn2ncnc2c1C (stereo not drawn) [Example 566]	1	0.6	4450
Cc1cc(-c2[nH]c3ccc(C4CN(CC(=O)N(C)C)CCO4)cc3c2C(C)C)cc(C)n1 (stereo not drawn) [Example 326]	75	28	19400
Cc1c(-c2[nH]c3ccc(C4CC5CNCC5C4)cc3c2C(C)C)cn2cnnc2c1C (stereo not drawn) [Example 519]	6	127	2510
